Source: patent US11925611B2, “Use of ZT-1A and analogs thereof to prevent and/or treat neurodegenerative and neurocognitive disorders” (United States Government as Represented by the Department …, priority 2021, dated 2024)
Where two headings read alike, the source gives them in different places.

Key:
[1] = biological target: SPAK (Homo sapiens, UniProt Q9UEW8); assay: Cellular inhibition of SPAK phosphorylation (pSer373); assay type: cell-based; details: 50% inhibition of phosphorylation, n = 3, — = no inhibition
Description: (§1) 8. Cellular Activity Profile of Inhibitors with the Salicyclic Amide
(§2) A list of the compounds evaluated for their ability to inhibit phosphorylation of SPAK/NKCC1/KCC3 activity is illustrated in Table 1 below.

[2] = system: KCC3; assay: Cellular inhibition of KCC3 phosphorylation (pThr991, pThr1048); assay type: cell-based; details: n = 3, — = no inhibition
Description: as §1, §2

[3] = system: NKCC1; assay: Cellular inhibition of NKCC1 phosphorylation (pThr203); assay type: cell-based; details: Isotonic conditions; n = 3; — = no inhibition; read-out: NKCC1 pThr203 (μM) Iso
Description: as §1, §2

[4] = system: BCAS mice; assay: Immunostaining of brains of BCAS mice (MBP, APC, NG2, caspase 3/Olig2, GFAP, tNKCC1); assay type: in vivo, C57BL/6J mice
Description: Clinically, most patients with intracranial atherosclerotic stenosis suffer from permanent stenosis without occlusion. Therefore, to mimic clinical atherosclerotic stenosis with permanent carotid artery (CCA) hypoperfusion, a modified BCAS model was adapted by ligating the CCA guided with a 30 gauge needle (0.31 mm diameter) in the right CCA and a 33 gauge needle (0.21 mm diameter) in the left CCA with a 4-0 silk suture. […] Next, changes of total NKCC1 (tNKCC1) protein expression were surveyed in different brain regions at 2 and 4 wks post-surgery by immunofluorescence staining (IF). […] Therefore, in the rest of the study, the investigation was focused on its association to white matter GFAP^+ astrogliosis and lesion of CC and external capsul (EC) tracks. […] However, by 2 wks post-BCAS surgery, tNKCC1 immunofluorescence intensity in the CC tracks was increased by ˜3 folds (p<0.05), and further elevated to ˜6 folds by 4 wks (p<0.05, arrowhead). Data are mean±SEM, n=4, *p<0.05, **p<0.01. […] The upregulation of tNKCC1 and GFAP protein expression in the CC is correlated, with a Pearson's correlation coefficient of r=0.9 (p<0.001). […] In contrast, no elevated tNKCC1 protein was detected either in Iba1^+ microglia/macrophages or in Olig2+ oligodendrocytes (OL) at 4 wks post-BCAS surgery (FIG. 1D). Without wishing to be bound by theory, these findings indicate that upregulation of NKCC1 expression and activity in reactive astrocytes may play a critical role in white matter inflammation, OL death, and demyelination after BCAS. Next, whether administration of SPAK inhibitor ZT-1a reduces WML and improves cognitive functions was examined. Starting at 14 days after BCAS surgery in mice (male), either vehicle DMSO (Veh, 2 ml/kg) or ZT-1a (5 mg/kg, every 72 h, i.p) was administered every 3 days, until they were sacrificed at day 35 post-BCAS (FIG. 3A). […] Motor functions are similar in all groups and average swimming speeds were not different in the Sham-, Veh- and ZT-1a-treated mice. Data are mean±SEM, n=6 (Sham and ZT-1a) or 5 (Veh), *p<0.01 vs. sham, *p<0.05 vs. Veh. After completion of the neurological function tests in the Veh-control and ZT-1a-treated BCAS cohort mice (as shown in FIG. 3A and FIG. 3B), ex-vivo brains were harvested for MRI DTI (diffusion tensor imaging) analysis of WML at 4 wks post-BCAS detected by DTI. The fractional anisotropy (FA), radial diffusivity (RD), and mean diffusivity (MD) of the CC and EC tracks were analyzed. Representative images of the DEC maps in FIG. 4A show severe loss of axonal fibers (arrowheads) in the CC and left EC of the Veh-control brains. […] These observations are consistent with changes of FA, RD, and MD values (FIG. 4B). […] Then MBP expression levels were measured in these brains by immunostaining. […] Taken together, these findings illustrated that post-BCAS administration of SPAK inhibitor ZT-1a reduces BCAS-induced white matter demyelination. […] To test this, immunostaining of the same cohort of brains (of FIG. 4A-D) was conducted to analyze oligodendrocyte precursor cell (OPC) counts (NG2^+), differentiated mature OLs (APC^+), and apoptotic OLs (caspase 3^+Olig2^+) in the Sham, Veh-, and ZT-1a-treated BCAS mice. […] Referring to FIG. 5A and FIG. 5B, representative double immunofluorescence images of APC (mature oligodendrocyte marker)/NG2 (oligodendrocyte precursor cell marker) in CC (FIG. 5A) and EC (FIG. 5B) of Sham, Veh-, and ZT-1a-treated brains at 4-wk after BCAS surgery. Nuclei were counterstained with DAPI. Quantitative analyses of APC^+/DAPI^+ cells and NG2^+/DAPI^+ cells is shown. Data are mean±SEM, n=4, *p<0.05, […]. Referring to FIG. 5C, representative double immunofluorescence images of Caspase 3^+/Olig2^+ cells in CC of Sham, Veh-, and ZT-1a-treated brains. Data are mean±SEM, n=4, *p<0.05. Without wishing to be bound by theory, it is speculated that ZT-1a treatment preserves white matter integrity via reducing reactive astrocyte-mediated inflammation in white matter tracks. […]

[5] = 4 wks post-BCAS, vs Veh-controls

IC50 ([1]; Hypotonic conditions, read-out: SPAK pSer373 (μM) hypo): 3 µM
IC50 ([1]; Isotonic conditions, read-out: SPAK pSer373 (μM) Iso): 1 µM
IC50 ([2]; Hypotonic conditions, read-out: KCC3 pThr1048 (μM) hypo): 3 µM
IC50 ([2]; Isotonic conditions, read-out: KCC3 pThr991 (μM) Iso): 3 µM
IC50 ([2]; Isotonic conditions, read-out: KCC3 pThr1048 (μM) Iso): 1 µM
IC50 [3]: 1 µM
SMILES: Cc1cc(C(C#N)c2ccc(Cl)cc2)c(Cl)cc1NC(=O)c1cc(Cl)ccc1O (stereo not drawn) [1a (ZT-1a)]
decrease in GFAP expression in CC ([4]; 4 weeks after BCAS, n=4): ~50%
decrease in tNKCC1 expression in CC ([4]; 4 weeks after BCAS, n=4): ~60%
APC+ cell counts (mature OLs) in the CC and EC tracts [4, 5]: significantly higher
NG2+ cell counts (OPC) in the CC and EC tracts [4, 5]: significantly higher
caspase 3+ OLs cell counts in CC [4, 5]: less
MBP protein expression in the CC and EC tracks ([4]; 4 wks post-BCAS, vs Veh-treated BCAS brains, p<0.05): less MBP loss
